In US20040166160A1, “Methods and dosage forms with modified viscosity layers” (priority 2003, published 2004):
Structures can show the parent of a compound that is named as a salt.

Key:
[1] = cited from earlier work
[2] = in vivo; cited from earlier work
[3] = in vivo; cited from earlier work; remark: listed apart in the source
[4] = FIG. 6
Excerpt: FIG. 6 illustrates blood plasma concentrations at various times achieved through various means of delivery. This figure illustrates the time necessary to achieve a particular blood plasma concentration.

Row | SMILES | solubility in alcohol ([1]; alcohol) | solubility in hydrocarbon solvents ([1]; hydrocarbon solvents) | solubility in isopropanol ([1]; isopropanol) | solubility in water ([1]; water) | half-life [2] [h] | reported side effects [3] | colonic absorption [4]
1 | CN(C)CCC=C1c2ccccc2C=Cc2ccccc21 [Cyclobenzaprine hydrochloride, cyclobenzaprine hydrochloride] | freely soluble | insoluble | sparingly soluble | freely soluble |  |  | 
2 | CN(C)CCC=C1c2ccccc2C=Cc2ccccc21 [cyclobenzaprine] |  |  |  |  | 24 to 72 | sedation and dry mouth | colonic absorption
